{"source": "paper PMC7933701", "about": "(Biochemistry and Biophysics Reports, 2021)", "origin": "cited, not measured here", "test_system": "PSA", "details": "peptide carrier of doxorubicin prodrug"}
{"substance": "Mu-His-Ser-Ser-Lys-Leu-Gln-Leu", "values": [{"measurement": "hydrolysis by PSA (in words)", "value": "precisely hydrolysable by PSA"}]}
